Tested on: Clostridium difficile
Assay: Agar dilution MIC of vancomycin preparations (Sigma, Cutis), diluent, Na benzoate and Na citrate
Format: cell-based
Details: for MIC, AV (average): average of triplicate; for MIC, VAN-1: replicate 1; for MIC, VAN-2: replicate 2; for MIC, VAN-3: replicate 3
Description: Introduction: The purpose of the study was to compare the MICs obtained with the formulation of vancomycin HCL of the invention (Cutis) to formulations obtained using a vancomycin HCL reference standard powder obtained from Sigma. The Example also involves the analysis of a solution or diluent to determine if it has antimicrobial activity at the concentrations present in the agar dilution test.
The C. difficile were tested by agar dilution according to the procedures in the Clinical and Laboratory Standards Institute. 2012. Methods for antimicrobial susceptibility testing of anaerobic bacteria; approved standard-seventh edition.
Other anaerobic organisms included clinical isolates of Bifidobacterium adolescentis and Bacteroides fragilis. Clostridium difficile ATCC 700057 was included as a quality control strain.
The C. difficile isolates were recovered from patients with CDI during the past two years and stored at −70° C. in 20% skim milk. Ribotyping was performed by another reference laboratory. The strains were taken from the freezer and subcultured at least twice to ensure purity and good growth.
On the day of testing, they were suspended in Brucella broth to the turbidity of the 0.5 McFarland standard for testing.
Stock solution of the Sigma vancomycin was prepared in water and stored at −70° C. On the day of testing, it was thawed and further diluted in water to obtain the desired range of 16-0.125 μg/ml. The Cutis vancomycin (25 mg/ml) was reconstituted on the day of testing and further diluted for a final range of 16-0.125 μg/ml in the test. The antimicrobials were added to molten Brucella agar supplemented with vitamin K and hemin to prepare the plates. Drug-free growth controls were included for testing before and after each set of plates. All testing was done in triplicate.
The organisms were pipetted into the wells of the Steers replicator head and applied to the plates with the multi-pronged replicator. The final concentration of organisms was ˜10^5 CFU/spot.
The plates were incubated in the anaerobic chamber incubator for 44 h and examined for growth.
The Cutis diluent comprises: water, about 0.12% (w/v) citric acid (anhydrous), 0.2% (w/v) sucralose, about 0.05% (w/v) artificial grape flavor, 0.1% (w/v) sodium benzoate, about 0.0002% (w/v) D&C Yellow No. 10 and about 0.000038% (w/v) FD&C Red No. 40.

Compound: CN[C@H](CC(C)C)C(=O)N[C@H]1C(=O)N[C@@H](CC(N)=O)C(=O)N[C@H]2C(=O)N[C@H]3C(=O)N[C@H](C(=O)N[C@H](C(=O)O)c4cc(O)cc(O)c4-c4cc3ccc4O)[C@H](O)c3ccc(c(Cl)c3)Oc3cc2cc(c3O[C@@H]2O[C@H](CO)[C@@H](O)[C@H](O)[C@H]2O[C@H]2C[C@](C)(N)[C@H](O)[C@H](C)O2)Oc2ccc(cc2Cl)[C@H]1O.Cl [Sigma]
- MIC, AV (average) (RMA 24690, ribotype 027): 5.3 µg/mL
- MIC, VAN-1 (RMA 24690, ribotype 027): 4 µg/mL
- MIC, VAN-2 (RMA 24690, ribotype 027): 4 µg/mL
- MIC, VAN-3 (RMA 24690, ribotype 027): 8 µg/mL
- MIC, AV (average) (RMA 26381, ribotype 017): 1.7 µg/mL
- MIC, VAN-1 (RMA 26381, ribotype 017): 2 µg/mL
- MIC, VAN-2 (RMA 26381, ribotype 017): 2 µg/mL
- MIC, VAN-3 (RMA 26381, ribotype 017): 1 µg/mL
- MIC, AV (average) (RMA 26442, ribotype 017): 1 µg/mL
- MIC, VAN-1 (RMA 26442, ribotype 017): 1 µg/mL
- MIC, VAN-2 (RMA 26442, ribotype 017): 1 µg/mL
- MIC, VAN-3 (RMA 26442, ribotype 017): 1 µg/mL
- MIC, AV (average) (RMA 26443, ribotype 027): 4 µg/mL
- MIC, VAN-1 (RMA 26443, ribotype 027): 4 µg/mL
- MIC, VAN-2 (RMA 26443, ribotype 027): 4 µg/mL
- MIC, VAN-3 (RMA 26443, ribotype 027): 4 µg/mL
- MIC, AV (average) (RMA 26445, ribotype 017): 2 µg/mL
- MIC, VAN-1 (RMA 26445, ribotype 017): 2 µg/mL
- MIC, VAN-2 (RMA 26445, ribotype 017): 2 µg/mL
- MIC, VAN-3 (RMA 26445, ribotype 017): 2 µg/mL
- MIC, AV (average) (RMA 26446, ribotype 027): 1 µg/mL
- MIC, VAN-1 (RMA 26446, ribotype 027): 1 µg/mL
- MIC, VAN-2 (RMA 26446, ribotype 027): 1 µg/mL
- MIC, VAN-3 (RMA 26446, ribotype 027): 1 µg/mL
- MIC, AV (average) (RMA 26447, ribotype 001): 2 µg/mL
- MIC, VAN-1 (RMA 26447, ribotype 001): 2 µg/mL
- MIC, VAN-2 (RMA 26447, ribotype 001): 2 µg/mL
- MIC, VAN-3 (RMA 26447, ribotype 001): 2 µg/mL
- MIC, AV (average) (RMA 26451, ribotype 001): 1.7 µg/mL
- MIC, VAN-1 (RMA 26451, ribotype 001): 2 µg/mL
- MIC, VAN-2 (RMA 26451, ribotype 001): 2 µg/mL
- MIC, VAN-3 (RMA 26451, ribotype 001): 1 µg/mL
- MIC, AV (average) (RMA 26455, ribotype 027): 1 µg/mL
- MIC, VAN-1 (RMA 26455, ribotype 027): 1 µg/mL
- MIC, VAN-2 (RMA 26455, ribotype 027): 1 µg/mL
- MIC, VAN-3 (RMA 26455, ribotype 027): 1 µg/mL
- MIC, AV (average) (RMA 26457, ribotype 027): 1 µg/mL
- MIC, VAN-1 (RMA 26457, ribotype 027): 1 µg/mL
- MIC, VAN-2 (RMA 26457, ribotype 027): 1 µg/mL
- MIC, VAN-3 (RMA 26457, ribotype 027): 1 µg/mL
- MIC, AV (average) (RMA 26461, ribotype 106): 1.3 µg/mL
- MIC, VAN-1 (RMA 26461, ribotype 106): 1 µg/mL
- MIC, VAN-2 (RMA 26461, ribotype 106): 2 µg/mL
- MIC, VAN-3 (RMA 26461, ribotype 106): 1 µg/mL
- MIC, AV (average) (RMA 26463, ribotype 002): 1.3 µg/mL
- MIC, VAN-1 (RMA 26463, ribotype 002): 1 µg/mL
- MIC, VAN-2 (RMA 26463, ribotype 002): 2 µg/mL
- MIC, VAN-3 (RMA 26463, ribotype 002): 1 µg/mL
- MIC, AV (average) (RMA 26466, ribotype 020): 1.7 µg/mL
- MIC, VAN-1 (RMA 26466, ribotype 020): 2 µg/mL
- MIC, VAN-2 (RMA 26466, ribotype 020): 2 µg/mL
- MIC, VAN-3 (RMA 26466, ribotype 020): 1 µg/mL
- MIC, AV (average) (RMA 26467, ribotype 002): 1.3 µg/mL
- MIC, VAN-1 (RMA 26467, ribotype 002): 1 µg/mL
- MIC, VAN-2 (RMA 26467, ribotype 002): 2 µg/mL
- MIC, VAN-3 (RMA 26467, ribotype 002): 1 µg/mL
- MIC, AV (average) (RMA 26471, ribotype 001): 2 µg/mL
- MIC, VAN-1 (RMA 26471, ribotype 001): 2 µg/mL
- MIC, VAN-2 (RMA 26471, ribotype 001): 2 µg/mL
- MIC, VAN-3 (RMA 26471, ribotype 001): 2 µg/mL
- MIC, AV (average) (RMA 26472, ribotype 014): 1 µg/mL
- MIC, VAN-1 (RMA 26472, ribotype 014): 1 µg/mL
- MIC, VAN-2 (RMA 26472, ribotype 014): 1 µg/mL
- MIC, VAN-3 (RMA 26472, ribotype 014): 1 µg/mL
- MIC, AV (average) (RMA 26480, ribotype 106): 1 µg/mL
- MIC, VAN-1 (RMA 26480, ribotype 106): 1 µg/mL
- MIC, VAN-2 (RMA 26480, ribotype 106): 1 µg/mL
- MIC, VAN-3 (RMA 26480, ribotype 106): 1 µg/mL
- MIC, AV (average) (RMA 26484, ribotype 106): 1 µg/mL
- MIC, VAN-1 (RMA 26484, ribotype 106): 1 µg/mL
- MIC, VAN-2 (RMA 26484, ribotype 106): 1 µg/mL
- MIC, VAN-3 (RMA 26484, ribotype 106): 1 µg/mL
- MIC, AV (average) (RMA 26485, ribotype 078): 1.3 µg/mL
- MIC, VAN-1 (RMA 26485, ribotype 078): 2 µg/mL
- MIC, VAN-2 (RMA 26485, ribotype 078): 1 µg/mL
- MIC, VAN-3 (RMA 26485, ribotype 078): 1 µg/mL
- MIC, AV (average) (RMA 26489, ribotype 176): 1 µg/mL
- MIC, VAN-1 (RMA 26489, ribotype 176): 1 µg/mL
- MIC, VAN-2 (RMA 26489, ribotype 176): 1 µg/mL
- MIC, VAN-3 (RMA 26489, ribotype 176): 1 µg/mL
- MIC, AV (average) (RMA 26494, ribotype 126): 1.3 µg/mL
- MIC, VAN-1 (RMA 26494, ribotype 126): 1 µg/mL
- MIC, VAN-2 (RMA 26494, ribotype 126): 2 µg/mL
- MIC, VAN-3 (RMA 26494, ribotype 126): 1 µg/mL
- MIC, AV (average) (RMA 26500, ribotype 014): 1 µg/mL
- MIC, VAN-1 (RMA 26500, ribotype 014): 1 µg/mL
- MIC, VAN-2 (RMA 26500, ribotype 014): 1 µg/mL
- MIC, VAN-3 (RMA 26500, ribotype 014): 1 µg/mL
- MIC, AV (average) (RMA 26503, ribotype 014): 1 µg/mL
- MIC, VAN-1 (RMA 26503, ribotype 014): 1 µg/mL
- MIC, VAN-2 (RMA 26503, ribotype 014): 1 µg/mL
- MIC, VAN-3 (RMA 26503, ribotype 014): 1 µg/mL
- MIC, AV (average) (RMA 26543, ribotype 078): 1 µg/mL
- MIC, VAN-1 (RMA 26543, ribotype 078): 1 µg/mL
- MIC, VAN-2 (RMA 26543, ribotype 078): 1 µg/mL
- MIC, VAN-3 (RMA 26543, ribotype 078): 1 µg/mL
- MIC, AV (average) (RMA 26544, ribotype 078): 2 µg/mL
- MIC, VAN-1 (RMA 26544, ribotype 078): 2 µg/mL
- MIC, VAN-2 (RMA 26544, ribotype 078): 2 µg/mL
- MIC, VAN-3 (RMA 26544, ribotype 078): 2 µg/mL
- MIC, AV (average) (RMA 26563, ribotype 018): 1 µg/mL
- MIC, VAN-1 (RMA 26563, ribotype 018): 1 µg/mL
- MIC, VAN-2 (RMA 26563, ribotype 018): 1 µg/mL
- MIC, VAN-3 (RMA 26563, ribotype 018): 1 µg/mL
- MIC, AV (average) (RMA 26572, ribotype 017): 1.7 µg/mL
- MIC, VAN-1 (RMA 26572, ribotype 017): 2 µg/mL
- MIC, VAN-2 (RMA 26572, ribotype 017): 2 µg/mL
- MIC, VAN-3 (RMA 26572, ribotype 017): 1 µg/mL
